Earlier results in patent US4323581A, “Method of treating carcinogenesis” (priority 1978, dated 1982).

Key:
[1] = cited from earlier work
[2] = system: breast cancer; conditions: in vivo; cited from earlier work
[3] = system: chemical carcinogenesis; conditions: in vivo; cited from earlier work

Structure (SMILES)	toxicity at high dosage levels ([1]; higher mammals)	effectiveness against breast cancer in the rat model [2]	potency in preventing chemical carcinogenesis relative to retinoic acid or the natural retinyl esters [3]	toxicity relative to retinoic acid or the natural retinyl esters ([1]; in vivo)
CCCCCCCCCCCCCCCC(=O)OC/C=C(C)/C=C/C=C(C)/C=C/C1=C(C)CCCC1(C)C [retinyl palmitate]	too toxic at high dosage levels to be of practical value for cancer prevention in higher mammals			
CC1=C(/C=C/C(C)=C/C=C/C(C)=C\C(=O)O)C(C)(C)CCC1 [13-cis-retinoic acid]		has not been found to be particularly effective against breast cancer in the rat model	more potent in preventing chemical carcinogenesis	considerably less toxic than retinoic acid or the natural retinyl esters
